Drawing on ChEMBL document CHEMBL4495565, “Cytopathic SARS-Cov2 screening on VERO-E6 cells in a large repurposing effort” (2020), this text covers CC50 for 31 compounds.

Molecules are shown by their SMILES. Counter-ions that a name gives are not always drawn.

The first data set can be described thus: in vitro. Conditions: chlorocebus sabaeus, VERO-E6 cells (Vero C1008), uninfected, CC50.
In turn, `Nc1ncc(-c2ccnc(Nc3ccncc3)n2)c(CC2CC2)n1` yielded a CC50 at 48 h of 2.11 µM. The same measure, in the same setting: the value for `Nc1ccc(C(=O)Nc2cccc(-c3nc(N4CCOCC4)c4oc5ncccc5c4n3)c2)cn1` was 0.01 µM; that for `COc1ccc2c(c1)[C@]1(C[C@H]1c1ccc3c(/C=C/c4ccc(CN5C[C@@H](C)O[C@@H](C)C5)cc4)n[nH]c3c1)C(=O)N2` [OCIFISERTIB] was greater than 33 µM. In turn, `Cc1nc(N)nc(N)c1-c1ccc(Cl)c(Cl)c1` [METOPRINE] had a CC50 at 48 h of 0.12 µM. As to `Nc1ncnc2c1ncn2[C@@H]1CC[C@@H](O)[C@H]1O`, the CC50 at 48 h was determined as 15.7 µM. On the same count and under the same terms, the value for `O=C(Nc1ccc(Cl)c(Cl)c1)Nc1ccc(Cl)c(Cl)c1` was greater than 33 µM; that for `CC(C)(C)NCc1ccc(Nc2ccnc3cc(Cl)ccc23)cc1O` [GSK-369796] was 12.4 µM. `CC(C)COCC(CN(Cc1ccccc1)c1ccccc1)N1CCCC1` (stereo unspecified): the CC50 at 48 h stood at 23.4 µM.

On to `N#Cc1cccc(C#N)c1-c1nc2c3ccc(Cl)cc3c3ccccc3c2[nH]1`, for which the CC50 at 48 h is greater than 33 µM.

Compound `Cc1cccc(Nc2nc(-c3ccncc3)cs2)c1` had a CC50 at 48 h of 31.5 µM.

Compound `CCN(CC)CCO[C@H]1CC[C@@]2(C)C(=CC[C@@H]3[C@@H]2CC[C@]2(C)C(=O)CC[C@@H]32)C1` registered a CC50 at 48 h of 3.43 µM.

Consider `Cc1ccc(C(=O)Nc2cccc(C(F)(F)F)c2)cc1Nc1nc(-c2cccnc2)nc2c1cnn2C`, for which the CC50 at 48 h was 0.07 µM. `O=S(=O)(NCC1CC1)c1ccc(Nc2nccc(N3CCCc4cc(O)ccc43)n2)cc1` registered a CC50 at 48 h of 0.74 µM. Compound `COc1cc2ncnc(Nc3cccc(Br)c3)c2cc1OC` showed a CC50 at 48 h of 13.2 µM.

`O=C(CCCN1CCC2(CC1)C(=O)N(Cc1cccc(F)c1)CN2c1ccccc1)c1ccc(F)cc1` returned a CC50 at 48 h of 27.4 µM. On the same count and under the same terms, the value for `O=C1Nc2cc(Br)ccc2/C1=C1/Nc2ccccc2/C1=N\O` [6BIO] was greater than 33 µM; that for `COc1cc2c(NC3CCN(C(C)C)CC3)nc(N3CCC(F)(F)CC3)nc2cc1OCCCN1CCCC1` was greater than 33 µM; that for `Nc1ccc2cc3ccc(N)cc3nc2c1` [PROFLAVINE] was 2.67 µM. The same measure, in the same setting: the value for `CC(C)(Sc1cc(C(C)(C)C)c(O)c(C(C)(C)C)c1)Sc1cc(C(C)(C)C)c(OC(=O)CCC(=O)O)c(C(C)(C)C)c1` [SUCCINOBUCOL] was 10.2 µM; that for `C[C@H]1CCC/C=C/[C@@H]2C[C@H](O)C[C@H]2[C@H](O)/C=C/C(=O)O1` [BREFELDIN A] was 0.06 µM. In turn, `COc1ccc2cc1Oc1ccc(cc1)C[C@H]1c3cc(c(OC)cc3CCN1C)Oc1c(OC)c(OC)cc3c1[C@H](C2)N(C)CC3` [FANCHININ] came in with a CC50 at 48 h greater than 33 µM. The compound `Cc1[nH]c(/C=C2\C(=O)Nc3ccc(S(=O)(=O)Cc4c(Cl)cccc4Cl)cc32)c(C)c1C(=O)N1CCC[C@@H]1CN1CCCC1` [PHA-665752] came in with a CC50 at 48 h greater than 33 µM. In the case of `N=C(Nc1ccc(I)cc1)NC1C2CC3CC(C2)CC1C3` (stereo unspecified), the CC50 at 48 h was greater than 33 µM. Same read-out and setting: then `CN(C)C(=O)C(CCN1CCC(O)(c2ccc(Cl)cc2)CC1)(c1ccccc1)c1ccccc1` [LOPERAMIDE], with greater than 33 µM; and `Cc1cc(O[C@@H](CCC(F)(F)F)c2ccc(C(=O)NCCC(=O)O)cc2)cc(C)c1-c1ccc(C(C)(C)C)cc1` [ADOMEGLIVANT], with greater than 33 µM.

`CC(C)(O)CNc1ncc(-c2ccnc(Nc3ccnc(Cl)c3)n2)c(CC2CC2)n1`: the CC50 at 48 h is 26.8 µM. As for `O=[N+]([O-])c1ccc(NN=Cc2sc(N3CCOCC3)nc2-c2ccccc2)c(S(=O)(=O)Nc2ccccc2Cl)c1`, the CC50 at 48 h came to 0.43 µM. As for `COc1cc2c(N3CCN(C(=O)Nc4ccc(OC(C)C)cc4)CC3)ncnc2cc1OCCCN1CCCCC1` [TANDUTINIB], the CC50 at 48 h is greater than 33 µM. Same read-out and setting: the value for `Cn1c(Nc2ccc(C(F)(F)F)cc2)nc2cc(Oc3ccnc(-c4ncc(C(F)(F)F)[nH]4)c3)ccc21` [RAF-265] was 9.19 µM; that for `CC(C)c1cnn2c(NCc3ccccc3)cc(NCCCCCCN)nc12` was greater than 33 µM.

Staying with this data set, now noted: chlorocebus sabaeus, vero c1008, CC50.
Turning to `CCN(CC)CCOc1ccc(C(=C(Cl)c2ccccc2)c2ccccc2)cc1` [CLOMIPHENE CITRATE], the CC50 at 48 h is greater than 33 µM.
